US20230263808A1 (UNIVERSITY OF FLORIDA RESEARCH FOUNDATION, INCORPORATED, priority 2020, published 2023)

Legend:
[1] = Lactate-tolerance test (rate of glucose production); type: in vivo, C57BL/6 male mice; conditions: after overnight fast; 10 mg/kg Dex or SR16024, 50 mg/kg SR11466
Text: A) The effects of all tested compounds on IL-1β-induced IL-6 production (x-axes) versus GR interaction with the indicated peptides. B-C) The effects of all tested compounds on the indicated GC-regulated phenotypes (x-axes) versus GR interaction with the CHD9_1023 and CENPR_1 peptides (y-axes). D-F) COC plots. Each point represents the Pearson correlation coefficient, r, between a distinct gene expression or GR-peptide interaction assay with assays indicated on the x and y axes. G) The effects of all tested compounds on IL-1β-induced IL-6 production (y-axes) versus insulin-induced protein synthesis. […] IL-β-induced IL-6 production by A549 cells treated with the indicated compounds was compared by AlphaLISA. […] Mice in panel K were subjected to a lactate-tolerance test (LTT).
We were also interested in whether the compounds would show dissociation between Glut4 translocation in skeletal muscle and gluconeogenesis in the liver, but enhanced glucose production is typically studied after weeks or months of GC treatment. However, we reasoned that an overnight fast should enable detection of effects after a single dose. […] Thus, profiling effects of GCs in the physiological context of nutrient deprivation allowed the discovery of two new types of glucocorticoids with improved profiles in skeletal muscle.

androgen receptor (AR) = target: T1, androgen receptor (AR) (Homo sapiens, UniProt P10275); experiment: AR-luciferase assay in 293T cells; type: cell-based
T1 construct: expressed in transfected cells; host or cells: 293T
T1 sequence (P10275 1-920): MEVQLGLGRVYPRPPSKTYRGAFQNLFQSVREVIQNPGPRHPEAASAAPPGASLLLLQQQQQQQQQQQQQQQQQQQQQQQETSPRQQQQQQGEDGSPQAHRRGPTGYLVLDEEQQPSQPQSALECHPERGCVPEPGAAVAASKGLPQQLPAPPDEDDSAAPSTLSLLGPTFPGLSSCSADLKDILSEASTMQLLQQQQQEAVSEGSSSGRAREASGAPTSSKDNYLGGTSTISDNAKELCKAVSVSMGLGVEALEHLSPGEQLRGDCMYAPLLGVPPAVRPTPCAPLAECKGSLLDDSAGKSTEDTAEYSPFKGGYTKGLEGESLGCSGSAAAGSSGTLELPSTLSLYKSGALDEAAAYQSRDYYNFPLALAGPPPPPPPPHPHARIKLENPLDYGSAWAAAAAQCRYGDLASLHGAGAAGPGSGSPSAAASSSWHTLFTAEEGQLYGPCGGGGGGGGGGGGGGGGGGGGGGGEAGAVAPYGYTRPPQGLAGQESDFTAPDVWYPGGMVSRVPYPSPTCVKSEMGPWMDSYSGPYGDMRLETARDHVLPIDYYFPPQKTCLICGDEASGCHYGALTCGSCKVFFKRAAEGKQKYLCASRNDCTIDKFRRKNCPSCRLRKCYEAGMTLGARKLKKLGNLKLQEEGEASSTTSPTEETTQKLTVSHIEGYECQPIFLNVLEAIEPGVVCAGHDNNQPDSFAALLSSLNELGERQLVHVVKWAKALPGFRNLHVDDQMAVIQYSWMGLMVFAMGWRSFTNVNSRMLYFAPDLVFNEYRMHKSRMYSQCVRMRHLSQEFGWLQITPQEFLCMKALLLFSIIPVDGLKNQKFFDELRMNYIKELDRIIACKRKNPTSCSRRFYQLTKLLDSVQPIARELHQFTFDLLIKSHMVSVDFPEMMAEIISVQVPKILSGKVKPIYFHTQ
Method: For native gene expression, C2C12 myotubes were treated compounds for 24 h. For MMTV-Luc assay, steroid-deprived 293T cells were co-transfected with a GR expression plasmid and an MMTV-driven luciferase reporter plasmid. The next day, cells were treated with compounds for 24 hrs. Each point represents the average of triplicate biological measurements for a separate compound. B) AR Luc assay development. Steroid-deprived 293T cells were transfected with AR expression plasmid and an ARR3-tk-driven luciferase reporter. The next day cells were treated with increasing doses of the indicated compounds. Data shown are mean+SD of triplicate measurements. C) AR-Luc assay identified 5 GCs with some AR activity.
For inclusion in the statistical analyses, assays were required to show high reproducibility, with a Pearson correlation >0.8 between different experiments (FIG. 2, H; FIG. 9, A). […] We also analyzed the effects of the compounds on expression of Fkbp5, Pdk4, and Klf15 mRNAs in C2C12 myotubes, and MMTV-luciferase and androgen receptor (AR) driven-luciferase activity in 293T cells. […] We also analyzed the effects of compounds on nuclear translocation of GR using a quantitative HTS approach (Htun et al., Proc. Natl. Acad. Sci. USA 93, 4845-4850, 1996). […]

Row | Compound | rate of glucose production in lactate tolerance test [1] | AR activity (androgen receptor (AR))
1 | C=CCOC1CC2(C)C(CCC2(O)C#CC)C2CCc3cc(C(=O)Nc4cccnc4C)ccc3C12 (centres unmarked) [SR11466] | increased the rate of glucose production | 
2 | CC#CC1(O)CCC2C3CCc4cc(C(=O)Nc5cccnc5C)ccc4C3C(OCc3ccc(Cl)cc3)CC21C (centres unmarked) [SR16025] |  | weak AR antagonist
